The values that follow come from patent publication US12440481B2, “Esters and carbamates as modulators of sodium channels” (VERTEX PHARMACEUTICALS INCORPORATED, priority 2019, dated 2025).

Chain of human NaV 1.8 (Q9Y5Y9 whole entry, looked up, the tested form may be a part): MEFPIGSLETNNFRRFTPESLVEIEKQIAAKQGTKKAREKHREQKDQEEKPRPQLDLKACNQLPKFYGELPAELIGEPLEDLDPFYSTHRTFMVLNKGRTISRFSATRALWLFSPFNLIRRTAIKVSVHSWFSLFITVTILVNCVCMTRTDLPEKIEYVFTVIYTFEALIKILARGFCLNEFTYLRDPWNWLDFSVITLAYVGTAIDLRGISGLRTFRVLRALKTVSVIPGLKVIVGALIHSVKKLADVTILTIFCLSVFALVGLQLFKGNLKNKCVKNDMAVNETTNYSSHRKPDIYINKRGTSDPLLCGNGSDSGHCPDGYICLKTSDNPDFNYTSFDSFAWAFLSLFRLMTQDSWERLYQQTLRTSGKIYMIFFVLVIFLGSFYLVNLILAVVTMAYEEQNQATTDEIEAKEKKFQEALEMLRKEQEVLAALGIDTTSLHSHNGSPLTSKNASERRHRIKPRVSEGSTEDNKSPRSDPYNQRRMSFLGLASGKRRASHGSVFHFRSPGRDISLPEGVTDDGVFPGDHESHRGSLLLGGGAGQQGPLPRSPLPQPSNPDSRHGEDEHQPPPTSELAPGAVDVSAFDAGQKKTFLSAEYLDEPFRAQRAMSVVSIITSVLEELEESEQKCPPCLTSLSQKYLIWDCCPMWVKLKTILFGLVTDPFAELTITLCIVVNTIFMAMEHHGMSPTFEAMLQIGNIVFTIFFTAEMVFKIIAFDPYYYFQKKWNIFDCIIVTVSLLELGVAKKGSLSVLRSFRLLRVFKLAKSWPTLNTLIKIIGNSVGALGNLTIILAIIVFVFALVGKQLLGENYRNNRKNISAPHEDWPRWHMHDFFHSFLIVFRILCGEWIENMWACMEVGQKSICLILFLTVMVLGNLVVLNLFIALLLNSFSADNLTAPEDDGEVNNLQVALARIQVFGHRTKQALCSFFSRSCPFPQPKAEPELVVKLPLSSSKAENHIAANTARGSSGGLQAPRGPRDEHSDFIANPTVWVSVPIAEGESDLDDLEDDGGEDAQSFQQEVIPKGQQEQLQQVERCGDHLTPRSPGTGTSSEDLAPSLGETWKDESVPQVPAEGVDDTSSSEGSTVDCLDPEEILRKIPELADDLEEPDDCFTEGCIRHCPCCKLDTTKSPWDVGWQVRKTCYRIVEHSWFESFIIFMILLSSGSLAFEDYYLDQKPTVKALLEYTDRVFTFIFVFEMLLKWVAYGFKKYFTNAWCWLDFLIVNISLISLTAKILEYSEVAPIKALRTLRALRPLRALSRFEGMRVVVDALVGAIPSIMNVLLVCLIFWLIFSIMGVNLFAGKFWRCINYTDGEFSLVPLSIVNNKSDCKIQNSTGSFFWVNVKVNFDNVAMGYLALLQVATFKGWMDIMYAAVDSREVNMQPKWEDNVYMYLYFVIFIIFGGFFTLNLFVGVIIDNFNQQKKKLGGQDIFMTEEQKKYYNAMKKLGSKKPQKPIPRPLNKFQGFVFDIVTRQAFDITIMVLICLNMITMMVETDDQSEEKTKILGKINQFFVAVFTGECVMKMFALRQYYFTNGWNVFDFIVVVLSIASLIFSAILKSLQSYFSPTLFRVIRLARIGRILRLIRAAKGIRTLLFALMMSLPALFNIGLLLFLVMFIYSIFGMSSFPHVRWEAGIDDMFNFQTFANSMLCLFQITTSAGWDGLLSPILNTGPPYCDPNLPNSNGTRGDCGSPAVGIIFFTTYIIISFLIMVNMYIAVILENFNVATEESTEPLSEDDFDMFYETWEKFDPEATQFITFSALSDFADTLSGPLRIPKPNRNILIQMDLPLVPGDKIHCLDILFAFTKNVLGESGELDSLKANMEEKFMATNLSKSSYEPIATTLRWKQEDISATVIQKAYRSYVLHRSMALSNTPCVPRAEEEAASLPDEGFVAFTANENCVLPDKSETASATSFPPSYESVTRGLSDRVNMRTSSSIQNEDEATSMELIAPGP

The test concerns the target human NaV 1.8 (Homo sapiens, UniProt Q9Y5Y9). Briefly: E-VIPR Assay for Detecting and Measuring NaV Inhibition Properties. Type of test: cell-based. The conditions noted are these: HEK cells expressing a truncated form of human NaV 1.8; HS = human serum; read-out: EVIPR HS IC50. The source says: E-VIPR Assay for Detecting and Measuring NaV Inhibition Properties
Sodium ion channels are voltage-dependent proteins that can be activated by inducing membrane voltage changes by applying electric fields. The electrical stimulation instrument and methods of use, referred to as E-VIPR, are described in International Publication No. WO 2002/008748 A3 and C.-J. Huang et al. Characterization of voltage-gated sodium channel blockers by electrical stimulation and fluorescence detection of membrane potential, 24 Nature Biotech. 439-46 (2006), both of which are incorporated by reference in their entirety. The instrument comprises a microtiter plate handler, an optical system for exciting the coumarin dye while simultaneously recording the coumarin and oxonol emissions, a waveform generator, a current- or voltage-controlled amplifier, and parallel electrode pairs that are inserted into assay plate wells. Under integrated computer control, this instrument passes user-programmed electrical stimulus protocols to cells within the wells of the microtiter plate.
16-20 hours prior to running the assay on E-VIPR, HEK cells expressing a truncated form of human NaV 1.8 with full channel activity were seeded into microtiter 384-well plates, pre-coated with matrigel, at a density of 25,000 cells per well. 2.5-5% KIR2.1 Bacmam virus was added to the final cell suspension before seeding into cell plates. HEK cells were grown in Dulbecco's Modified Eagle's Medium (DMEM) supplemented with 10% FBS (Fetal Bovine Serum, qualified; Sigma #F4135), 1% NEAA (Non-Essential Amino Acids, Gibco #11140), 1% HEPES (Gibco #15630), 1% Pen-Strep (Penicillin-Streptomycin; Gibco #15140) and 5 μg/ml Blasticidin (Gibco #R210-01). Cells were expanded in vented cap cell culture flasks, with 90-95% humidity and 5% CO2.
Reagents and Stock Solutions:
• 100 mg/mL Pluronic F-127 (Sigma #P2443), in dry DMSO • Compound Plates: Corning 384-well Polypropylene Round Bottom #3656 • Cell Plates: 384-well tissue culture treated plates (Greiner #781091-1B) • 2.5-5% KIR 2.1 Bacmam virus (produced in-house), prepared as described in Section 3.3 of J. A. Fornwald et al., Gene Expression in Mammalian Cells Using BacMam, a Modified Baculovirus System, 1350 Methods in Molecular Biology 95-116 (2016), the entire contents of which are incorporated by reference. The concentration used can be dependent on viral titer of each batch. • 5 mM DiSBAC6 (3), a voltage sensitive oxonol acceptor (CAS number 169211-44-3; 5-[3-(1,3-dihexylhexahydro-4,6-dioxo-2-thioxo-5-pyrimidinyl)-2-propen-1-ylidene]-1,3-dihexyldihydro-2-thioxo-4,6(1H,5H)-pyrimidinedione), in dry DMSO. The preparation of DiSBAC6 (3) is analogous to that of DiSBAC4 (3) as described in Voltage Sensing by Fluorescence Resonance Energy Transfer in Single Cells, Gonzalez, J. E. and Tsien, R. Y. (1995) Biophys. J. 69, 1272-1280. • 5 mM CC2-DMPE, a commercially available membrane-bound coumarin phospholipid FRET donor (ThermoFisher Scientific catalog number K1017, CAS number 393782-57-5; tetradecanoic acid, 1,1′-[(1R)-1-[8-(6-chloro-7-hydroxy-2-oxo-2H-1-benzopyran-3-yl)-3-hydroxy-3-oxido-8-oxo-2,4-dioxa-7-aza-3-phosphaoct-1-yl]-1,2-ethanediyl] ester) was prepared in dry DMSO. […]
Take `COC(=O)c1cc(NC(=O)c2c(Oc3ccc(OC(F)(F)F)c(F)c3C)ccc(C(F)(F)F)c2C)c(C)cn1` [Compound 16, Methyl 4-[[6-[3-fluoro-2-methyl-4-(trifluoromethoxy)phenoxy]-2-methyl-3-(trifluoromethyl)benzoyl]amino]-5-methyl-pyridine-2-carboxylate]: the concentration for half-maximal inhibition (IC50) – broadly, the midpoint of a concentration-inhibition curve – is < 100 nM.
The same measure for `COC(=O)c1cc(NC(=O)c2c(Oc3ccc(OC(F)(F)F)c(F)c3OC)ccc(C(F)(F)F)c2F)c(C2CC2)cn1` [Compound 27, methyl 5-cyclopropyl-4-(2-fluoro-6-(3-fluoro-2-methoxy-4-(trifluoromethoxy)phenoxy)-3-(trifluoromethyl)benzamido)picolinate]: ≥ 1000 nM.
In the case of `COC(=O)c1nccc(NC(=O)c2c(Oc3ccc(OC(F)(F)F)c(F)c3OC)ccc(C(F)(F)F)c2F)c1C` [Compound 34, methyl 4-(2-fluoro-6-(3-fluoro-2-methoxy-4-(trifluoromethoxy)phenoxy)-3-(trifluoromethyl)benzamido)-3-methylpicolinate], the IC50 is ≥ 1000 nM.
For `[2H]C([2H])([2H])Oc1cc(OC(F)(F)F)ccc1Oc1ccc(C(F)(F)F)cc1C(=O)Nc1ccnc(NC(=O)OC(C)(C)C)c1` [Compound 9, tert-butyl N-[4-[[2-[2-(trideuteriomethoxy)-4-(trifluoromethoxy)phenoxy]-5-(trifluoromethyl)benzoyl]amino]-2-pyridyl]carbamate] the value was ≥ 1000 nM.
The same measure for `[2H]C([2H])([2H])Oc1cc(OC(F)(F)F)ccc1Oc1ccc(C(F)(F)F)cc1C(=O)Nc1ccnc(C(=O)OC)c1` [Compound 8, methyl 4-[[2-[2-(trideuteriomethoxy)-4-(trifluoromethoxy)phenoxy]-5-(trifluoromethyl)benzoyl]amino]pyridine-2-carboxylate]: 500 to 1000 nM; for `COC(=O)c1nccc(NC(=O)c2c(Oc3ccc(OC(F)(F)F)c(F)c3OC)ccc(C(F)(F)F)c2C)c1F` [Compound 31, methyl 3-fluoro-4-(6-(3-fluoro-2-methoxy-4-(trifluoromethoxy)phenoxy)-2-methyl-3-(trifluoromethyl)benzamido)picolinate]: ≥ 1000 nM.
On to `COC(=O)c1cc(NC(=O)c2c(Oc3ccc(OC(F)(F)F)cc3OC)ccc(C(F)(F)F)c2F)c(C2CC2)cn1` [Compound 26, methyl 5-cyclopropyl-4-(2-fluoro-6-(2-methoxy-4-(trifluoromethoxy)phenoxy)-3-(trifluoromethyl)benzamido)picolinate], for which the IC50 is ≥ 1000 nM.
For `COC(=O)c1ccc(NC(=O)c2c(Oc3ccc(OC(F)(F)F)cc3)ccc(C(F)(F)F)c2F)cn1` [Compound 13, methyl 5-[[2-fluoro-6-[4-(trifluoromethoxy)phenoxy]-3-(trifluoromethyl)benzoyl]amino]pyridine-2-carboxylate] the value was ≥ 1000 nM.
For `COC(=O)c1nccc(NC(=O)c2c(Oc3ccc(OC(F)(F)F)cc3OC)ccc(C(F)(F)F)c2C)c1C` [Compound 33, methyl 4-(6-(2-methoxy-4-(trifluoromethoxy)phenoxy)-2-methyl-3-(trifluoromethyl)benzamido)-3-methylpicolinate] the value was ≥ 1000 nM; for `COC(=O)c1ccnc(NC(=O)c2c(Oc3ccc(OC(F)(F)F)c(F)c3OC)ccc(C(F)(F)F)c2C)c1` [Compound 24, Methyl 2-[[6-[3-fluoro-2-methoxy-4-(trifluoromethoxy)phenoxy]-2-methyl-3-(trifluoromethyl)benzoyl]amino]pyridine-4-carboxylate], ≥ 1000 nM.
For `COC(=O)c1cc(NC(=O)c2c(Oc3ccc(OC(F)(F)F)cc3OC)ccc(C3CC3)c2C)c(C)cn1` [Compound 2, methyl 4-[[3-cyclopropyl-6-[2-methoxy-4-(trifluoromethoxy)phenoxy]-2-methyl-benzoyl]amino]-5-methyl-pyridine-2-carboxylate] the value was 100 to 500 nM.
